Laboratory results taken from BindingDB's records for doi:10.1021/jm960799i (Dupont Pharmaceuticals, 1997).
Structures can show the parent of a compound that is named as a salt.

Target: Integrin alpha-IIb/beta-3 (Homo sapiens, UniProt P08514+P05106)
Test: In vitro inhibition of ADP-induced platelet aggregation in human platelet rich plasma (hPRP)

Sequence of Integrin alpha-IIb/beta-3 (P05106 27-788 limits assumed): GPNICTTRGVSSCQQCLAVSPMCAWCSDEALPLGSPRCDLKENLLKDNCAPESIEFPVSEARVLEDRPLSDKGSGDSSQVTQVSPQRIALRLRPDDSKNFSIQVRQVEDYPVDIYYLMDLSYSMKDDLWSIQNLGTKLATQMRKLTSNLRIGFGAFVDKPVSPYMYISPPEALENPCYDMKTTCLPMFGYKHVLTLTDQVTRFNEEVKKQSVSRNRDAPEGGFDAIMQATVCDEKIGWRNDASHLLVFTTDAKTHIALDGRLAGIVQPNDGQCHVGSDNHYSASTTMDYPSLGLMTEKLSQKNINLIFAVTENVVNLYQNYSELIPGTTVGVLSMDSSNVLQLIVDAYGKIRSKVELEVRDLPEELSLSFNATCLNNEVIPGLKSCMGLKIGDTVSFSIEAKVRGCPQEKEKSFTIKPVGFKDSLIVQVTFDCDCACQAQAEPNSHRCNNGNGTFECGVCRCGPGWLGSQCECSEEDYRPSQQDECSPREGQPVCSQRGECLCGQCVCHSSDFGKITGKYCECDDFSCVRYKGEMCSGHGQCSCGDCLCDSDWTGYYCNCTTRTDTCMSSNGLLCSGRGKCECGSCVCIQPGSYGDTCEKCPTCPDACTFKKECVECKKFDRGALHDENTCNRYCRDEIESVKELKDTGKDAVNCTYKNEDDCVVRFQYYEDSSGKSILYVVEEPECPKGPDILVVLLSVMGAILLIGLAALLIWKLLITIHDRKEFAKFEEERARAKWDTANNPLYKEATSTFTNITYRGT
Sequence of Integrin alpha-IIb/beta-3 (P08514 32-887 limits assumed): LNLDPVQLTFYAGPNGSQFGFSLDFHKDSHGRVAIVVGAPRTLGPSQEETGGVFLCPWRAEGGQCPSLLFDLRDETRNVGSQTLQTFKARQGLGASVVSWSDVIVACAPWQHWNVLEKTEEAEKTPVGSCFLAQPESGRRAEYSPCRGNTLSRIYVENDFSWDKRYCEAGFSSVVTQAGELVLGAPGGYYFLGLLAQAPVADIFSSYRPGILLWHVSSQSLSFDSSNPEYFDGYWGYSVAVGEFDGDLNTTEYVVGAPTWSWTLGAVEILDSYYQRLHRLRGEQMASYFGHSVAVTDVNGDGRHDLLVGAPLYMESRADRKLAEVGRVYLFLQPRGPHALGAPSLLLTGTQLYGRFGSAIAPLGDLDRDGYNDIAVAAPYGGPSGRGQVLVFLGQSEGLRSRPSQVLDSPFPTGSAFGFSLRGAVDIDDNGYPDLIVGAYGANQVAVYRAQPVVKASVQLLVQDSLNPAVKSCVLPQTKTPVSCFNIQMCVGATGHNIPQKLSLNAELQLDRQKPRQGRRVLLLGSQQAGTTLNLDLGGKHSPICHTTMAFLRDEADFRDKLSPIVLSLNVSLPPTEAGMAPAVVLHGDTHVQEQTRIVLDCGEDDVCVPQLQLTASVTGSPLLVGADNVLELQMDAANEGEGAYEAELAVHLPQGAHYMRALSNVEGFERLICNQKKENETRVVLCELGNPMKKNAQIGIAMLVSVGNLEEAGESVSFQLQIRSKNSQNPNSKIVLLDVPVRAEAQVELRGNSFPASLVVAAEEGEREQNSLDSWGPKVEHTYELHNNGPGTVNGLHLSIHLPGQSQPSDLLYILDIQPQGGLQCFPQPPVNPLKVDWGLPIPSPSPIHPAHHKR
Sequence of Integrin alpha-IIb/beta-3 (P08514 891-1039 limits assumed): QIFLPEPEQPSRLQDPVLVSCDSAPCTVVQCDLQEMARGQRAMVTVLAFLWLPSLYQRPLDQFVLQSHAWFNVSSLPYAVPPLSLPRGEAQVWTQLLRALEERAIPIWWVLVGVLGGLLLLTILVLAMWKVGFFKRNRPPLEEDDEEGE

Row | SMILES | IC50 [µM]
1 | N=C(N)c1ccc(C2=NOC(CC(=O)NC[C@H](NC(=O)OCCC(F)(F)F)C(=O)O)C2)cc1 (stereo partly drawn) [(S)-3-{2-[3-(4-Carbamimidoyl-phenyl)-4,5-dihydro-isoxazol-5-yl]-acetylamino}-2-(3,3,3-trifluoro-propoxycarbonylamino)-propionic acid; TFA] | 0.031
2 | CCCCCCOC(=O)N[C@@H](CNC(=O)CC1CC(c2ccc(C(=N)N)cc2)=NO1)C(=O)O (stereo partly drawn) [(S)-3-{2-[3-(4-Carbamimidoyl-phenyl)-4,5-dihydro-isoxazol-5-yl]-acetylamino}-2-hexyloxycarbonylamino-propionic acid; TFA] | 0.041
3 | CC(C)COC(=O)N[C@@H](CNC(=O)CC1CC(c2ccc(C(=N)N)cc2)=NO1)C(=O)O (stereo partly drawn) [(S)-3-{2-[3-(4-Carbamimidoyl-phenyl)-4,5-dihydro-isoxazol-5-yl]-acetylamino}-2-isobutoxycarbonylamino-propionic acid; TFA] | 0.047
4 | CC(C)OC(=O)N[C@@H](CNC(=O)CC1CC(c2ccc(C(=N)N)cc2)=NO1)C(=O)O (stereo partly drawn) [(S)-3-{2-[3-(4-Carbamimidoyl-phenyl)-4,5-dihydro-isoxazol-5-yl]-acetylamino}-2-isopropoxycarbonylamino-propionic acid; TFA] | 0.13
5 | N=C(N)c1ccc(C2=NOC(CC(=O)N[C@@H](CC(=O)O)C(=O)N3CCSCC3)C2)cc1 (stereo partly drawn) [(S)-3-{2-[3-(4-Carbamimidoyl-phenyl)-4,5-dihydro-isoxazol-5-yl]-acetylamino}-4-oxo-4-thiomorpholin-4-yl-butyric acid; TFA] | 0.36
6 | N=C(N)c1ccc(C2=NOC(CC(=O)N[C@@H](CC(=O)O)C(=O)N3CCC4CCC(CC4)C3)C2)cc1 (stereo partly drawn) [(S)-4-(3-Aza-bicyclo[4.2.2]dec-3-yl)-3-{2-[3-(4-carbamimidoyl-phenyl)-4,5-dihydro-isoxazol-5-yl]-acetylamino}-4-oxo-butyric acid; TFA] | 0.21
7 | N=C(N)c1ccc(C2=NOC(CC(=O)N[C@@H](CC(=O)O)C(=O)NCC34CC5CC(CC(C5)C3)C4)C2)cc1 (stereo partly drawn) [(S)-N-Adamantan-1-ylmethyl-3-{2-[3-(4-carbamimidoyl-phenyl)-4,5-dihydro-isoxazol-5-yl]-acetylamino}-succinamic acid; TFA] | 0.095
8 | N=C(N)c1ccc(C2=NOC(CC(=O)N[C@@H](CC(=O)O)C(=O)NC3C4CC5CC(C4)CC3C5)C2)cc1 (stereo partly drawn) [(S)-N-Adamantan-2-yl-3-{2-[3-(4-carbamimidoyl-phenyl)-4,5-dihydro-isoxazol-5-yl]-acetylamino}-succinamic acid; TFA] | 0.14

The next lines start with the values.

Row | IC50 [µM] | SMILES
9 | 0.031 | N=C(N)c1ccc(C2=NOC(CC(=O)NC[C@H](NC(=O)CCc3ccccc3)C(=O)O)C2)cc1 (stereo partly drawn) [(S)-3-{2-[3-(4-Carbamimidoyl-phenyl)-4,5-dihydro-isoxazol-5-yl]-acetylamino}-2-(3-phenyl-propionylamino)-propionic acid; TFA]
10 | 0.069 | COC(=O)[C@H](CNC(=O)CC1CC(c2ccc(C(=N)N)cc2)=NO1)NC(=O)Nc1ccccc1 (stereo partly drawn) [(S)-3-{2-[3-(4-Carbamimidoyl-phenyl)-4,5-dihydro-isoxazol-5-yl]-acetylamino}-2-(3-phenyl-ureido)-propionic acid methyl ester; TFA]
11 | 0.049 | CCc1ccc(C(=O)N[C@@H](CNC(=O)CC2CC(c3ccc(C(=N)N)cc3)=NO2)C(=O)O)cc1 (stereo partly drawn) [(S)-3-{2-[3-(4-Carbamimidoyl-phenyl)-4,5-dihydro-isoxazol-5-yl]-acetylamino}-2-(4-ethyl-benzoylamino)-propionic acid; TFA]
12 | 0.061 | N=C(N)c1ccc(C2=NOC(CC(=O)NC[C@H](NC(=O)c3ccc4ccccc4c3)C(=O)O)C2)cc1 (stereo partly drawn) [(S)-3-{2-[3-(4-Carbamimidoyl-phenyl)-4,5-dihydro-isoxazol-5-yl]-acetylamino}-2-[(naphthalene-2-carbonyl)-amino]-propionic acid; TFA]
13 | 0.065 | COC(=O)N[C@@H](CNC(=O)CC1CC(c2ccc(C(=N)N)cc2)=NO1)C(=O)O (stereo partly drawn) [(S)-3-{2-[3-(4-Carbamimidoyl-phenyl)-4,5-dihydro-isoxazol-5-yl]-acetylamino}-2-methoxycarbonylamino-propionic acid; TFA]
14 | 0.055 | N=C(N)c1ccc(C2=NOC(CC(=O)NC[C@H](NC(=O)OCCc3ccccc3)C(=O)O)C2)cc1 (stereo partly drawn) [(S)-3-{2-[3-(4-Carbamimidoyl-phenyl)-4,5-dihydro-isoxazol-5-yl]-acetylamino}-2-phenethyloxycarbonylamino-propionic acid; TFA]
15 | 1.4 | N=C(N)c1ccc(C2=NOC(CC(=O)N[C@H](CC(=O)O)Cc3ccccc3)C2)cc1 (stereo partly drawn) [(S)-3-{2-[3-(4-Carbamimidoyl-phenyl)-4,5-dihydro-isoxazol-5-yl]-acetylamino}-4-phenyl-butyric acid; hydrochloride]
16 | 0.068 | N=C(N)c1ccc(C2=NOC(CC(=O)N[C@@H](CC(=O)O)C(=O)NCCc3ccccc3)C2)cc1 (stereo partly drawn) [(S)-3-{2-[3-(4-Carbamimidoyl-phenyl)-4,5-dihydro-isoxazol-5-yl]-acetylamino}-N-phenethyl-succinamic acid; TFA]
17 | 0.17 | N=C(N)c1ccc(C2=NO[C@@H](CC(=O)N[C@@H](CC(=O)O)c3cccnc3)C2)cc1 [(S)-3-{2-[(R)-3-(4-Carbamimidoyl-phenyl)-4,5-dihydro-isoxazol-5-yl]-acetylamino}-3-pyridin-3-yl-propionic acid; TFA]
18 | 0.18 | CCCCN(Cc1ccccc1)C(=O)[C@H](CC(=O)O)NC(=O)CC1CC(c2ccc(C(=N)N)cc2)=NO1 (stereo partly drawn) [(S)-N-Benzyl-N-butyl-3-{2-[3-(4-carbamimidoyl-phenyl)-4,5-dihydro-isoxazol-5-yl]-acetylamino}-succinamic acid; TFA]
